Tests used:
Rattus norvegicus [1] = assay: Sleeping time was determined in rats at 30 mg/kg intraperitoneal dose; format: functional
Rattus norvegicus [2] = assay: Effective dose was measured in rats using subcutaneous pentylenetetrazole seizure test; format: functional; conditions: sc
Rattus norvegicus [3] = organism: Rattus norvegicus; assay: % protection was measured in rats using maximal electroshock seizure test; format: functional
[4] = Tested for therapeutic index of compound (LD50/MES ED50); conditions: rat; read-out: TI
[5] = Acute toxicity was measured in rats using maximal electroshock seizure test; conditions: rat, in vivo
Rattus norvegicus [6] = organism: Rattus norvegicus; assay: The activity was measured by using barbiturate hypnosis potentiation effect test; format: functional
Rattus norvegicus [7] = assay: % protection was measured in rats using subcutaneous pentylenetetrazole seizure test; format: functional; parameters: concentration or dose not given beside the values
Rattus norvegicus [8] = organism: Rattus norvegicus; assay: Effective dose was measured in rats using maximal electroshock seizure test; format: functional
Rattus norvegicus [9] = assay: Sleeping time was determined in rats after administration of compound; NS non-significant; format: functional
Rattus norvegicus [10] = assay: Effective dose was measured in rats using maximal electroshock seizure test(ip); showed no protection up to 100 mg/kg (i.p. dose); format: functional, organism-based; parameters: dose 100 mg/kg
Rattus norvegicus [11] = assay: Effective dose was measured in rats using maximal electroshock seizure test(ip); showed no protection up to 120 mg/kg (i.p. dose); format: functional, organism-based; parameters: dose 120 mg/kg
Rattus norvegicus [12] = assay: Sleeping time was determined in rats after administration of compound; non-significant; format: functional
Rattus norvegicus [13] = organism: Rattus norvegicus; assay: % protection was measured in rats using maximal electroshock seizure test; p<0.05; format: functional
Rattus norvegicus [14] = assay: Sleeping time was determined in rats after administration of compound; p<0.05; format: functional
Rattus norvegicus [15] = assay: % protection was measured in rats using subcutaneous pentylenetetrazole seizure test; p<0.05; format: functional
Rattus norvegicus [16] = organism: Rattus norvegicus; assay: % protection was measured in rats using maximal electroshock seizure test; p<0.01; format: functional

Compound	Sleeping time (Rattus norvegicus [1]) [min]	ED50 (Rattus norvegicus [2]) [mg/kg]	Protection (Rattus norvegicus [3]) [%]	selectivity ratio [4]	LD50 [5] [mg/kg]	Hypnosis potentiation (Rattus norvegicus [6]) [%]	Protection (Rattus norvegicus [7]) [%]	ED50 (Rattus norvegicus [8]) [mg/kg]	Sleeping time (Rattus norvegicus [9]) [min]	ED50 (Rattus norvegicus [10])	ED50 (Rattus norvegicus [11])	Sleeping time (Rattus norvegicus [12]) [min]	Protection (Rattus norvegicus [13]) [%]	Sleeping time (Rattus norvegicus [14]) [min]	Protection (Rattus norvegicus [15]) [%]	Protection (Rattus norvegicus [16]) [%]
CCCC(C)C1(CC)C(=O)N=C([O-])NC1=O.[Na+] (stereo unspecified) [PENTOBARBITAL SODIUM]	65.25	–	–	–	–	–	–	–	–	–	–	–	–	–	–	–
COc1ccc(Nc2ns/c(=N\C(S)=N\c3ccc(Cl)cc3)n2-c2ccc(OC)cc2)cc1	–	150	50	10.3	210	3.14	0	20.3	67.3	–	–	–	–	–	–	–
Cc1cccc(Nc2ns/c(=N\C(S)=N\c3ccc(Cl)cc3)n2-c2cccc(C)c2)c1	–	–	0	–	–	–	0	–	–	no protection up to 100 mg/kg	no protection up to 100 mg/kg	–	–	–	–	–
COc1ccccc1Nc1ns/c(=N\C(S)=N\c2ccc(Cl)cc2)n1-c1ccccc1OC	–	–	0	–	–	–	0	–	–	no protection up to 100 mg/kg	no protection up to 100 mg/kg	–	–	–	–	–
S=C(/N=c1\snc(Nc2cccc(Cl)c2)n1-c1cccc(Cl)c1)Nc1ccc(Cl)cc1	–	26.2	–	6.85	120	5.97	75	17.5	–	–	–	69.15	75	–	–	–
Cc1ccccc1Nc1ns/c(=N\C(S)=N\c2ccc(Cl)cc2)n1-c1ccccc1C	–	–	0	–	–	–	0	–	–	no protection up to 100 mg/kg	no protection up to 100 mg/kg	–	–	–	–	–
S=C(/N=c1\snc(Nc2ccccc2)n1-c1ccccc1)Nc1ccc(Cl)cc1	–	–	25	3.26	250	4.98	0	76.5	–	–	–	68.5	–	–	–	–
Cc1ccc(Nc2ns/c(=N\C(S)=N\c3ccc(Cl)cc3)n2-c2ccc(C)cc2)cc1	–	–	50	6.42	300	15.63	0	46.7	–	–	no protection up to 120 mg/kg	75.45	–	–	–	–
O=C1NC(=O)C(c2ccccc2)(c2ccccc2)N1 [PHENYTOIN]	–	100	–	–	65.5	54.02	37.5	9.5	–	–	–	–	75	100.5	–	–
COc1cccc(Nc2ns/c(=N\C(S)=N\c3ccc(Cl)cc3)n2-c2cccc(OC)c2)c1	–	–	0	–	–	–	0	–	–	no protection up to 100 mg/kg	no protection up to 100 mg/kg	–	–	–	–	–
S=C(/N=c1\snc(Nc2ccc(Cl)cc2)n1-c1ccc(Cl)cc1)Nc1ccc(Cl)cc1	–	22.1	–	11.7	117	11.58	–	10	–	–	–	72.81	–	–	75	87.5
S=C(/N=c1\snc(Nc2ccccc2Cl)n1-c1ccccc1Cl)Nc1ccc(Cl)cc1	–	35.1	–	14.6	175	20.58	0	12	78.68	–	–	–	75	–	–	–
